Results on one compound are retold here after patent US8865220B2, “Method for controlled release of parathyroid hormone from encapsulated poly(lactic-glycolic)acid microspheres” (Kaohsiung Medical University, priority 2010, dated 2014).

In general, bioavailability refers to the share of a dose that reaches the circulation, judged against a reference dose that is usually intravenous.

Values joined by “and” are separate entries in the source; they are usually repeats but may differ in a detail not shown here. Equal values may be shown once. Read-outs that look alike come from different tables or passages of the source.

Data set [1] relates to papain induced osteoarthritis. The settings on record: injection once in three days for 5 weeks; cited from earlier work.
For data set [2] the following is noted: pulmonary route, cited from earlier work.
For a further data set, the system named is MC3T3-E1 cells. Put plainly: Bioactivity of released PTH(1-34): intracellular cAMP. The class given is cell-based. Particulars: PTH(1-34) released from microspheres at 1 and 3 days; 6 hrs incubation. As for the experimental part:
Activity of controlled released PTH(1-34) was determined by measuring cAMP contents in cells treated with released PTH(1-34). For these experiments, the MC3T3-E1 was cultured in α-MEM supplemented with 10% fetal bovine serum and […] ascorbic acid. The cells were seeded onto 24-well plates at a density of 50,000 cells/well. After 6 hrs of incubation with released PTH (1-34) from microspheres, the cells were lysed directly in the medium by adding 0.1 N HCl and 0.5 mM isobutylmethylxanthine to protect the produced cAMP. Intracellular cAMP was measured using a commercially available ELISA kit (Endogen/Pierce, Rockford, Ill.) following the manufacturer's instructions.

The conditions of data set [3]: oral administration, in comparison to subcutaneous administration; cited from earlier work.
For data set [4], the system named is papain-induced osteoarthritis, articular cartilage. The experiment in a line: Papain-induced osteoarthritis, histology and immunohistochemistry of articular cartilage. The class given is in vivo, rat. On the procedure: The animal experiments were approved by the Animal Care and Use Committee of Kaohsiung Medical University. Fifty-four 12-week-old male Sprague-Dawley rats (250-300 gm) were purchased from BioLASCO Taiwan and housed under standard laboratory conditions (temperature 24° C., 12-hour light-dark cycle) with food and water ad libitum. The animals were acclimatized to the laboratory environment for 1 week before the experiments.
Each left knee, which served as the contralateral control joint, received the vehicle without PTH treatment or OA-induction. The right knees were the study joints. Rats were divided into five groups: Non-OA+PTH [PTH(1-34) treatment without OA-induction] (n=6), Non-OA+PTH/PLGA [PTH/PLGA microspheres treatment without OA-induction] (n=6), OA [OA-induction without PTH(1-34) treatment] (n=6), OA+PTH [PTH(1-34) treatment followed by OA-induction] (n=6), and OA+PTH/PLGA [PTH/PLGA microspheres treatment followed by OA-induction] (n=6). OA was induced in the right knees of rats in the OA and OA+PTH groups with intra-articular injections of 20 μl of 4% papain solution and 20 μl of 0.03 M cystein. The injections were given with a 26-gauge needle via the patellar tendon on days 1, 4, and 7 of the experiment (13). In the OA+PTH group, after OA-induction, the right knees were injected intra-articularly with 40 μl of 10 nM PTH(1-34) every three days until sacrifice. In the PTH group, the same PTH(1-34) treatment was performed but without OA-induction. In the OA+PTH/PLGA group, after OA-induction, the right knees were injected intra-articularly with 0.4 mg of PTH/PLGA microspheres at 1st and 15th day. The rats were sacrificed with an overdose of CO2-inhaled at the same time point at 5 weeks.
After sacrifice, the knees of each rat were harvested, and the tibia plateaus with articular cartilage were collected and fixed with 10% neutral buffered formalin prior to histological preparation. The samples were then decalcified in 10% formic acid/PBS. The decalcified tibia articular samples were paraffin embedded, and 5 μm microsections in the coronary plane were prepared. GAG was stained with Safranin-O-Fast-Green (1% Safranin-O counter-stained with 0.75% hematoxylin and then 1% fast green) (Sigma, St. Louis, Mo.). Localized type II Collagen and type X collagen were immuno-stained.
GAG was stained red by Safarinin-O, and the total and red-stained areas in the articular cartilage of each proximal tibia were measured using the Image-Pro plus 5.0 software (FIG. 6C) (Media Cybernetics Inc. MD, USA). The ratio of red stained area to total area (red/total) in each group was calculated.
The tibia articular sections were re-hydrated, and the endogenous peroxidase in tissues was blocked with 3% hydrogen peroxide. Samples were digested by enzymes for epitope retrieval before incubation with primary antibodies. The method for enzyme digestion was modified from a previous report (20). The optimal condition for the enzyme digestion for type II collagen immuno-staining was a mixture of 2.5% hyluronidase and 1 mg/ml pronase in PBS (pH 7.4) (Sigma, St. Louis, Mo.) at 37° C. for 1 hour. For type X collagen immuno-staining the optimal condition was 0.1 U/ml chondroitinase ABC (Sigma, St. Louis, Mo.) for 1 hour and pepsin 1 mg/ml in tris-HCl (pH 3.0) at 37° C. for 15 minutes. […]

[5] abbreviates: Non-OA study joints (no OA-induction).
The mark [6] stands for this setting: OA-induced study joints, intra-articular, 5 weeks.

On to `CC[C@H](C)[C@H](NC(=O)[C@H](CCC(=O)O)NC(=O)[C@H](CO)NC(=O)[C@@H](NC(=O)[C@@H](N)CO)C(C)C)C(=O)N[C@@H](CCC(N)=O)C(=O)N[C@@H](CC(C)C)C(=O)N[C@@H](CCSC)C(=O)N[C@@H](Cc1cnc[nH]1)C(=O)N[C@@H](CC(N)=O)C(=O)N[C@@H](CC(C)C)C(=O)NCC(=O)N[C@@H](CCCCN)C(=O)N[C@@H](Cc1cnc[nH]1)C(=O)N[C@@H](CC(C)C)C(=O)N[C@@H](CC(N)=O)C(=O)N[C@@H](CO)C(=O)N[C@@H](CCSC)C(=O)N[C@@H](CCC(=O)O)C(=O)N[C@@H](CCCN=C(N)N)C(=O)N[C@H](C(=O)N[C@@H](CCC(=O)O)C(=O)N[C@@H](Cc1c[nH]c2ccccc12)C(=O)N[C@@H](CC(C)C)C(=O)N[C@@H](CCCN=C(N)N)C(=O)N[C@@H](CCCCN)C(=O)N[C@@H](CCCCN)C(=O)N[C@@H](CC(C)C)C(=O)N[C@@H](CCC(N)=O)C(=O)N[C@@H](CC(=O)O)C(=O)N[C@H](C(=O)N[C@@H](Cc1cnc[nH]1)C(=O)N[C@@H](CC(N)=O)C(=O)N[C@@H](Cc1ccccc1)C(=O)O)C(C)C)C(C)C` [PTH(1-34)], for which the effective dose in data set [1] is reported as 10^−8 M. The bioavailability in data set [2] (inhalation of dry powders) is 34%; in data set [2] (intratracheal instillation), 40%; in data set [3], 5% and 2.1%. Besides, the cAMP production entry in the data set on MC3T3-E1 cells is on record as “increased production of cAMP”. Moreover, the “Safranin O-stained area to total area (red:total, GAG) vs contralateral control” value in data set [4] (setting [5]) was “not significantly different”; in data set [4] (setting [6]) it was “not significantly different from the contralateral control cartilage”. For the same compound, in data set [4] (setting [5]), the “type II collagen stained area to total area vs contralateral control” value is listed as “not significantly different”. For the same compound, the “type X collagen-stained chondrocytes vs OA group” value in data set [4] (OA-induced study joints, after 5 weeks of treatment) is reported as “less positive stained cells”. Also, the “type II collagen stained area to total area (brown:total) vs contralateral control” value in data set [4] (setting [6]) is reported as “not significantly different from the contralateral control cartilage”.
